Assay results: patent US9416132B2, “Substituted imidazo[1,2-b]pyridazines as protein kinase inhibitors” (Tolero Pharmaceuticals, Inc., priority 2011, dated 2016)
Like-named read-outs stand apart in the source and are kept apart here.

Key:
[1] = tested on: MV-4-11 (FLT3-ITD) xenografts; assay: MV-4-11 mouse xenograft study; assay type: in vivo
Source text: (§1) Male and female Nu/Nu mice were purchased from Harlan Sprague Dawley (Indianapolis, Ind.). Female Nu/Nu mice were used for all xenograft evaluations with the exception of the PC-3 xenografts where male Nu/Nu mice were used. Cell lines were expanded in vitro in complete media, and if adherent were harvested by trypsin-EDTA, centrifuged and resuspended in PBS 1:1 with Matrigel (BD Bioscienes). Cells were inoculated subcutaneously in the right hind flank of mice. When tumors reached 100-200 mm^3 by caliper measurement, mice were randomized and dosing of SGI-9481 or vehicle control began and continued every day for 5 days (QD×5) with 2 days off for 18-21 days. Tumor volumes and body weights were determined twice a week, and tumor weights were measured at the completion of the translational xenograft studies.

NIH-3T3/PIM-2 xenografts = assay: NIH-3T3/PIM-2 over-expression mouse tumor xenograft; assay type: in vivo
Source text: as §1
(§2) The prostate cancer cell line 22RV1 engineered to over-express PIM-1 as previously described (Mumenthaler, et al, Mol. Cancer Ther., 2009, 8(10)2882-93) was evaluated in vivo. A second model engineered to over-express PIM-2 was established using the NIH-3T3 mouse fibroblast cell line.

UM-UC-3 xenograft tumors = assay: UM-UC-3 established mouse xenograft tumors; assay type: in vivo
Source text: as §1, with “When tumors reached 100-200 mm^3 by caliper measurement, mice were randomized and dosing of SGI-9481 or vehicle control began and continued every day for 5 days (QD×5) with 2 days off for 18-21 days.” left out

22RV1/PIM-1 xenografts = assay: 22RV1/PIM-1 over-expression mouse tumor xenograft; assay type: in vivo
Source text: as §1, §2

[2] = Pharmacokinetic study in PC-3 tumor-burdened mice; assay type: in vivo, mouse; conditions: 200 mg/kg
[3] = tested on: ML-2 cells (wild-type FLT3) xenografts; assay: ML-2 mouse xenograft study; assay type: in vivo; conditions: ML-2 (wild-type FLT3) xenografts
Source text: as §1

PIM-1 [4] = molecular target: T1, PIM-1 (Homo sapiens (Human), UniProt P11309); assay: Pim-1 kinase inhibition assay (Promega Kinase-Glo); assay type: biochemical; conditions: read-out: Compound IC50 on Pim1
T1 sequence (P11309 whole entry): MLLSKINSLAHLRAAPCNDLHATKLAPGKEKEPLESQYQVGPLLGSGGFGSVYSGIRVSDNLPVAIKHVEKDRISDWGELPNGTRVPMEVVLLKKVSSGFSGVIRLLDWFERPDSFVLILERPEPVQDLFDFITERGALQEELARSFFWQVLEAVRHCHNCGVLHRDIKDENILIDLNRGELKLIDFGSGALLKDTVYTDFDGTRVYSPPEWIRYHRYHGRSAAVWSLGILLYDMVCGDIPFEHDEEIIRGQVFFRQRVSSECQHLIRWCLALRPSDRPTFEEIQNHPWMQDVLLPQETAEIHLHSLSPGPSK
Source text: One illustrative manner in which Pim-1 kinase activity can be determined is by quantifying the amount of ATP remaining in solution after an in vitro Pim-1 kinase reaction. The Kinase-Glo Assay Kit (Promega, Inc., Madison, Wis.) allows this. The amount of ATP remaining in the solution after the kinase reaction serves as a substrate for the luciferase to catalyze luciferin to oxyluciferin plus one photon of light. Thus, the luminescent signal read by the Luminoskan Ascent Instrument (Thermo Electron Corp., Milford, Mass.) correlates with the amount of ATP present after the kinase reaction and inversely correlates with the amount of kinase activity. […] These assays are set up in duplicate 50 ul volumes in white, flat bottom 96 well plates. […] This solution is incubated at 30 degrees Celsius at 360 rpm for two hours. Following the incubation, 50 ul of Kinase-Glo reagent is added to each well, including all positive and negative control wells, and incubated at room temperature for 15 minutes. […] The IC50 values can then be calculated for each inhibitor tested.

PC-3 xenograft tumors = assay: PC-3 established mouse xenograft tumors; assay type: in vivo
Source text: as §1, with “When tumors reached 100-200 mm^3 by caliper measurement, mice were randomized and dosing of SGI-9481 or vehicle control began and continued every day for 5 days (QD×5) with 2 days off for 18-21 days.” left out

PIM-1 [5] = molecular target: T1, PIM-1; assay: PIM-1/BAD over-expression phospho-BAD (Ser112) AlphaScreen assay in HEK-293 cells; assay type: cell-based; conditions: PIM-1/BAD over-expression in HEK-293 cells; read-out: average EC50, PIM-1 specific cellular activity (BAD Ser112 phosphorylation)
Procedure: HEK-293 cells (1×10^4) were seeded in a 96-well plate using EMEM media with serum and incubated overnight at 37° C. in 5% CO2. […] Cells were serum starved for an additional 18 hours, then treated 2 hours with various concentrations of SGI-9481 or 0.5% carrier DMSO control. Media was removed and cells were lysed using 25 μl 1× lysis buffer from the AlphaScreen SureFire Phospho-BAD (Ser112) kit from Perkin Elmer. Lysates (4 μl) were transferred to a 384-well proxiplate, and 5 μl of acceptor mix was added to each well and incubated for 2 hours at room temperature. Donor mix (2 μl) was added to each well, and samples incubated for 2 hours at room temperature and reactions measured on an Envision plate reader (Perkin Elmer) with AlphaScreen capabilities. Non-specific phosphorylation of BAD was subtracted using values from PIM-1 KD transfected cells, and the remaining wells were normalized to the DMSO control wells. EC50 values were calculated using GraphPad Prism software (La Jolla, Calif.).

[6] = tested on: phosphatidyl inositol-3-kinase (PI3K) family; assay: Selectivity study; assay type: biochemical
hERG = hERG (Homo sapiens (Human), UniProt Q12809); assay: hERG Fast Patch assay (WuXiApptec); assay type: cell-based
hERG, sequence (Q12809 whole entry): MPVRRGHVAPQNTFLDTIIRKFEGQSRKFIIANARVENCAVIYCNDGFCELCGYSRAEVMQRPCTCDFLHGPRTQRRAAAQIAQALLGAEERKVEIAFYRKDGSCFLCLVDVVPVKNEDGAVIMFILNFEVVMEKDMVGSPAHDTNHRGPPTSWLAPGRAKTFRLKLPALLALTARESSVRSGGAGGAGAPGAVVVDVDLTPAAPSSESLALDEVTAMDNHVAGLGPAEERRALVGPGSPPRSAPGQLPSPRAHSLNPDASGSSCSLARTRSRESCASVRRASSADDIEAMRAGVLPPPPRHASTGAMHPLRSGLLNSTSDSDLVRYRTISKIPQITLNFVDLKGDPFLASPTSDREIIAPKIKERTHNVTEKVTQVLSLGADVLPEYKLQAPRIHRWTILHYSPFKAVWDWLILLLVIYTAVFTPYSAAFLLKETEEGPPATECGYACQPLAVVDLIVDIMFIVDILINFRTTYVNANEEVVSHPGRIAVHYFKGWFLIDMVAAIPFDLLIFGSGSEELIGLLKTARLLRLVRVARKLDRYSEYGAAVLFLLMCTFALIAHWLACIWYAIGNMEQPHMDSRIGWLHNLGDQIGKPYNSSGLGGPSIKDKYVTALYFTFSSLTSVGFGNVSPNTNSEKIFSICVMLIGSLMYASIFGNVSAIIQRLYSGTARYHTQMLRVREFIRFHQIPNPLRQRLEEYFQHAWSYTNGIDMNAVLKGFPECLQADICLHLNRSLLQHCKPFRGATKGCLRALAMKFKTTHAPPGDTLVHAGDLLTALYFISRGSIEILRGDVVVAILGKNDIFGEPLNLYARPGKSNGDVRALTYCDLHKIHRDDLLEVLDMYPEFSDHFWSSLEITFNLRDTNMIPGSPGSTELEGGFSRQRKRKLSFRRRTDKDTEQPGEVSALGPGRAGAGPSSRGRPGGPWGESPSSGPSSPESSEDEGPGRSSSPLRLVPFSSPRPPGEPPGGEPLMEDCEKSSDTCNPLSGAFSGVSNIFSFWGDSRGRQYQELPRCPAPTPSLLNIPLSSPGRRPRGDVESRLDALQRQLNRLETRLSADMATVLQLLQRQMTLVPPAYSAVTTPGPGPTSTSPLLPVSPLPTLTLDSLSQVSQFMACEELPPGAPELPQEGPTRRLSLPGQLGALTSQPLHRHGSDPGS

[7] = 125 mg/kg, less than with 200 mg/kg

## CC(C)(O)[C@H]1CC[C@H](Nc2ccc3ncc(-c4cccc(C(F)(F)F)c4)n3n2)CC1 [Compound 8-31]
[1]
  effect on established xenografts: induced regressions
NIH-3T3/PIM-2 xenografts; NIH-3T3/PIM-2 + compound vs NIH-3T3/PIM-2 + vehicle
  subcutaneous tumor growth: significantly inhibited
NIH-3T3/PIM-2 xenografts; NIH-3T3/PIM-2 xenograft mice
  body weight changes: No significant changes in body weight
UM-UC-3 xenograft tumors; [7]
  tumor growth inhibition: significant tumor growth inhibition
UM-UC-3 xenograft tumors; oral dosing 200 mg/kg
  body weight or gross adverse toxicity: no significant changes in body weight or gross adverse toxicity
  tumor growth by volume (caliper) and final tumor weight: significantly reduced
22RV1/PIM-1 xenografts; 22RV1/PIM-1 + compound vs 22RV1/PIM-1 + vehicle
  subcutaneous tumor growth: significantly reduced
22RV1/PIM-1 xenografts; 22RV1/PIM-1 xenograft mice
  body weight changes: No significant changes in body weight
[2]
  plasma and tumor tissue levels: above the in vitro proliferation EC50
[3]
  tumor growth inhibition: significant tumor growth inhibition
PIM-1 [4]; Table IV
  IC50: 1 nM
PC-3 xenograft tumors; [7]
  tumor growth inhibition: significant tumor growth inhibition
PC-3 xenograft tumors; oral dosing 200 mg/kg
  body weight or gross adverse toxicity: no significant changes in body weight or gross adverse toxicity
  tumor growth by volume (caliper) and final tumor weight: significantly reduced
PIM-1 [5]
  EC50: 67 nM
[6]
  activity against multiple members of the PI3K family: inhibitory activity

## C[C@]1(O)CC[C@H](Nc2ccc3ncc(-c4cccc(Cl)c4)n3n2)CC1 [Compound 8-36, 4-((3-(3-Chlorophenyl)imidazo[1,2-b]pyridazin-6-yl)amino)-1-methyl-trans-cyclohexano]
PIM-1 [4]; Table IV
  IC50: 145 nM

## C[C@]1(O)CC[C@H](Nc2ccc3ncc(-c4cccc(C(F)(F)F)c4)n3n2)CC1 [Compound 8-30, 1-Methyl-4-((3-(3-(trifluoromethyl)phenyl)imidazo[1,2-b]pyridazin-6-yl)amino)-trans-cyclohexanol]
hERG
  IC50: 12000 nM
PIM-1 [4]; Table IV
  IC50: 103 nM

## CO[C@H]1CC[C@H](Nc2ccc3nnc(-c4cccc(OC(F)(F)F)c4)n3c2)CC1 [Compound 8-99, 4-(trans-Methoxycyclohexyl)-3-(3-(trifluoromethoxy)phenyl)-[1,2,4]triazolo[4,3-a]pyridin-6-amine]
PIM-1 [4]; Table V
  IC50: 83 nM

## CC(C)(O)[C@H]1CC[C@H](Nc2ccn3ncc(-c4cccc(Cl)c4)c3n2)CC1 [Compound 8-63]
hERG
  IC50: > 30000 nM

## CO[C@H]1CC[C@H](Nc2ccc3ncc(-c4cccc(C(F)(F)F)c4)n3n2)CC1 [Compound 8-32, 4-(trans-Methoxycyclohexyl)-3-(3-(trifluoromethyl)phenyl)imidazo[1,2-b]pyridazin-6-amine]
PIM-1 [4]; Table IV
  IC50: 115 nM

## CO[C@H]1CC[C@H](Nc2ccc3nnc(-c4cccc(Cl)c4)n3c2)CC1 [Compound 8-113, 4-(trans-Methoxycyclohexyl)-3-(3-chlorophenyl)-[1,2,4]triazolo[4,3-a]pyridin-6-amine]
PIM-1 [4]; Table V
  IC50: 722 nM

## N[C@H]1CC[C@H](Nc2ccc3ncc(-c4cccc(OC(F)(F)F)c4)n3n2)CC1 [Compound 8-8, (3-(3-(Trifluoromethoxy)phenyl)imidazo[1,2-b]pyridazin-6-yl)cyclohexane-trans-1,4-diamine]
PIM-1 [4]; Table IV
  IC50: 4 nM

## C[C@]1(O)CC[C@H](Nc2ccc3nnc(-c4cccc(C(F)(F)F)c4)n3c2)CC1 [Compound 8-108, 1-Methyl-4-((3-(3-(trifluoromethyl)phenyl)-[1,2,4]triazolo[4,3-a]pyridin-6-yl)amino)-trans-cyclohexanol]
PIM-1 [4]; Table V
  IC50: 70 nM

## CC(C)(O)[C@H]1CC[C@H](Nc2ccn3ncc(-c4cccc(C(F)(F)F)c4)c3n2)CC1 [Compound 8-56]
hERG
  IC50: > 30000 nM

## CC(C)(N)[C@H]1CC[C@H](Nc2ccc3ncc(-c4cccc(Cl)c4)n3n2)CC1 [Compound 8-79, N-(trans-4-(2-aminopropan-2-yl)cyclohexyl)-3-(3-chlorophenyl)imidazo[1,2-b]pyridazin-6-amine]
PIM-1 [4]; Table IV
  IC50: 2 nM

## CC(C)(O)[C@H]1CC[C@H](Nc2ccc3ncc(-c4cccc(Cl)c4)n3n2)CC1 [Compound 8-37]
hERG
  IC50: > 30000 nM
PIM-1 [4]; Table IV
  IC50: 4 nM
